Experiments:
[1] = test system: patient-derived organoids (PDOs) from a lung cancer patient's metastatic tumor; test: Patient-derived organoid viability (CellTiter Glo); format: cell-based, human; parameters: viability of PDO: dose or concentration left out as unconfirmed; conditions: 72 h
Method: FIG. 1A is a bar graph showing the IC50 values of AGB against indicated cell lines. Cells were treated with AGB at various concentrations for 48 h and processed for MTT assay. The IC50 values were half maximal inhibitory concentration that determined by the fitting curve using the equation from GraphPad Prism 8. FIG. 1B is a bar graph showing the inhibition of colony formation on NCI-H460 cells by AGB. Cells were treated with indicated concentrations of AGB for 8 h. Medium with AGB was then aspirated and cells were re-seeded into a new 12-well cell culture plate. After 14 days, cells were fixed by ethanol followed by staining using crystal violet. Colony numbers were counted and normalized to vehicle control group. Colonies with more than 50 cells were considered. **, p<0.01; ***, p<0.001. […] The numbers of formed tumorsphere were calculated and normalized to the control group of primary passage. […] FIG. 1E is a graph showing the cell viability of CSCs determined by MTT assay. The absorbance of each well was normalized to control wells and data were shown as percentage of cell viabilities. […]
To better simulate the physiological structure and function of in situ tissue, the effect of AGB on the growth of patient-derived organoids (PDOs) isolated from a lung cancer patient's metastatic tumor was evaluated.

[2] = Safety in xenograft mice (body weight, H&E staining); format: in vivo
Method: In vivo anticancer efficacy of AGB was evaluated using the human tumor xenograft model, in which human cancer cells were inoculated into immune-deficiency mice. Briefly, twelve six-week-old (16-18 g) BALB/c nude mice were randomly divided into two groups and both received subcutaneous injection of NCI-H460 cells (2 million cells in 0.1 mL PBS) at its right flank of mice and tumor became palpable after three days of injection. Mice were received intravenous (i.v.) injections of AGB or vehicle control (10% DMSO and 0.05% Tween 80 in normal saline) every two days in two weeks. The length and width of tumor were measured by Vernier caliper and the body weight was monitored every two or three days. At the end of experiment, mice were sacrificed and decapitated. The liver, kidney, and tumor were collected and fixed in 4% formaldehyde for further haematoxylin and eosin (H&E) staining. All animal experiments in this project received human care and study protocols complied with the guidelines of the Laboratory Animal Services Centre of the University of Hong Kong. Tumor sizes and body weight were recorded before the drug injection every time and tumor volume (V) was calculated by the formula V=LW^2/2, where L is tumor length and W is tumor width. The relative tumor volume that normalized to day 0 was used to monitor the tumor growth. Data in each group was shown as mean±standard deviation.
The in vivo antitumor potential of AGB using the xenograft mouse model was assessed. Two different cancer cells (NCI-H460 and A549) were inoculated subcutaneously into the nude mice. Non-obese diabetic severe combined immunodeficient (NOD/SCID) mice were used for stem-like NCI-H460 cells. The mice were then treated by tail intravenous injection with vehicle or AGB (3 mg/kg). […] To further evaluate the safety of AGB, hematoxylin-eosin (H&E) staining of the kidney, liver, and tumor samples were performed (FIG. 1K). The necrotic area (circled by dashed line) in the tumor tissue from mice treated with AGB was much larger than that in vehicle group.

NCI-H460 cells = test: Apoptosis assays (Hoechst, annexin V/PI, Western blotting); format: cell-based, human
Method: FIG. 4 is a graph showing AGB induced apoptosis in NCI-H460 cells by the Annexin-V/PI double-staining assay. After treating with AGB for 24 h and 36 h, respectively, cells were stained with annexin V-FITC and propidium iodide and analyzed by flow cytometry.
The mitochondrial fission and mitochondrial membrane potential depolarization are involved in the induction of cell apoptosis and also play a central role to the apoptotic pathway. Therefore, several apoptosis assays were performed. […] Induction of apoptosis by AGB in NCI-H460 cells was further supported through monitoring PARP, caspase-9, and caspase-3 cleavage as well as through changes in the levels of a panel of proteins commonly involved in apoptotic signaling via Western blotting experiments (data not shown).

TALDO1 = target: T1, TALDO1 (Homo sapiens, UniProt P37837); test: Targeted metabolomics of PPP intermediates and intracellular NADPH; format: cell-based; conditions: after treatment of AGB
T1 construct: endogenous in cells
T1 sequence (P37837 1-337): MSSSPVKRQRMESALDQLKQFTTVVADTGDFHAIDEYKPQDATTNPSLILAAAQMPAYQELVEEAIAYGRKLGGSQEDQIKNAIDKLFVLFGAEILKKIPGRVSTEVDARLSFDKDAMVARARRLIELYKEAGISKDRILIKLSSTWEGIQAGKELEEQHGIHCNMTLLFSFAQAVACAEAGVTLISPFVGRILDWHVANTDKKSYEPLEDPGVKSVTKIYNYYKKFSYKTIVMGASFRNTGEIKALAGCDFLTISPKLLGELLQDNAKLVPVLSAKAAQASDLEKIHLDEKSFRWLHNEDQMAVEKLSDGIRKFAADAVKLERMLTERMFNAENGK
Method: TALDO1 is a key enzyme of the nonoxidative PPP providing ribose-5-phosphate for nucleic acid synthesis and NADPH (the reduced form of Nicotinamide adenine dinucleotide phosphate) for lipid biosynthesis. Targeted metabolomics analysis was performed for measuring of the intermediate metabolites involved in the PPP pathway. […] PPP activation has been widely found in different types of cancer because of the uncontrolled proliferation of cancer cells. […] Moreover, enhanced production of NADPH is crucial to increase the intracellular redox power of cancer cells to escape from oxidative stress.

For CCCC(=O)c1c(O)c(Cc2c(O)c(Cc3c(O)c(C)c(OC)c(C(=O)CCC)c3O)c(O)c(C(=O)[C@@H](C)CC)c2O)c(O)c(C)c1OC [AGB, Agrimol B], the “viability of PDO” value ([1]; AGB, concentration dependent) was “Significant inhibition of viability”, the maximal viability loss ([1]; PDO) was “over 99%” and the “observable toxicity (body weight of mice)” value ([2]; 3 mg/kg of AGB) was “did not show any observable toxicity”. For the same compound, the “liver and kidney histology (H&E)” value ([2]; after treatment with AGB) was “did not show any obvious change”, the “necrotic area in the tumor tissue vs vehicle group (H&E)” value ([2]; mice treated with AGB) was “much larger” and the Hoechst staining (NCI-H460 cells) was “chromatin condensation and fragmentation”. For the same compound, the “release of mitochondrial factors to cytosol” value (NCI-H460 cells) was “release of cytochrome c and apoptosis inducing factor AIF”, the “annexin V and PI flow cytometry” value (NCI-H460 cells; 24 h and 36 h AGB treatment) was “increase of the early and late apoptotic cell populations” and the PPP intermediate metabolites (TALDO1) was “significantly decreased”. For the same compound, the “intracellular content of NADPH” value (TALDO1) was “significant decrease”.
